One block for each molecule: values may come before it.
Columns and labels:
[1] = test system: renal dehydropeptidase-1 (DHP-1); settings: background art; cited from earlier work
[2] = Acute toxicity; assay type: in vivo; settings: three ICR male mice, 1500 mg/kg i.v.
[3] = test system: S. aureus M126; experiment: Antibacterial activity (MIC, two-fold method), S. aureus M126 (methicillin-resistant); assay type: cell-based; set-up: unit not given here
Description: *: Methicillinresistant Staphylococcus aureus-

[4] = test system: Ps. aeruginosa M-0148; experiment: Antibacterial activity (MIC, two-fold method), Ps. aeruginosa M-0148; assay type: cell-based; set-up: unit not given here
[5] = test system: E. faecalis W-73; experiment: Antibacterial activity (MIC, two-fold method), E. faecalis W-73; assay type: cell-based; set-up: unit not given here
[6] = test system: C. freudii GN346; experiment: Antibacterial activity (MIC, two-fold method), C. freudii GN346; assay type: cell-based; set-up: unit not given here
[7] = test system: S. marcescens GN10857; experiment: Antibacterial activity (MIC, two-fold method), S. marcescens GN10857; assay type: cell-based; set-up: unit not given here
[8] = test system: Ps. aeruginosa E-2; experiment: Antibacterial activity (MIC, two-fold method), Ps. aeruginosa E-2; assay type: cell-based; set-up: unit not given here
[9] = test system: S. aureus 209P JC-1; experiment: Antibacterial activity (MIC, two-fold method), S. aureus 209P JC-1; assay type: cell-based; set-up: unit not given here
[10] = test system: E. coli NIHJ JC-2; experiment: Antibacterial activity (MIC, two-fold method), E. coli NIHJ JC-2; assay type: cell-based; set-up: unit not given here
[11] = test system: E. cloacae GN747; experiment: Antibacterial activity (MIC, two-fold method), E. cloacae GN747; assay type: cell-based; set-up: unit not given here
[12] = test system: P. vulgaris GN76; experiment: Antibacterial activity (MIC, two-fold method), P. vulgaris GN76; assay type: cell-based; set-up: unit not given here
[13] = test system: E. coli 255; experiment: Antibacterial activity (MIC, two-fold method), E. coli 255; assay type: cell-based; set-up: unit not given here
[14] = test system: K. pneumoniae PC1602; experiment: Antibacterial activity (MIC, two-fold method), K. pneumoniae PC1602; assay type: cell-based; set-up: unit not given here

Structure (SMILES): C[C@@H](O)[C@H]1C(=O)N2C(C(=O)O)=C(SCCN=CN)C[C@H]12 [Imipenem]
stability against renal dehydropeptidase-1 (DHP-1) [1]: instability

Structure (SMILES): C[C@@H](O)[C@H]1C(=O)N2C(C(=O)[O-])=C(C[n+]3cc4scc(CNS(N)(=O)=O)n4c3)[C@H](C)[C@H]12 [Example 14, (1S,5R,6S)-6-[(1R)-1-hydroxyethyl]-2-[3-(aminosulfonyl)aminomethylimidazo[5,1-b]thiazolium-6-yl]methyl-1-methyl-1-carbapen-2-em-3-carboxylate]
survival (acute toxicity) [2]: All the animal survived

MIC [3]: 6.25
MIC [4]: 3.13
MIC [5]: 6.25
MIC [6]: 0.10
MIC [7]: 0.39
MIC [8]: 3.13
MIC [9]: < 0.025
MIC [10]: 0.20
MIC [11]: 0.20
MIC [12]: 0.78
MIC [13]: 0.20
MIC [14]: 0.20
Structure (SMILES): C[C@@H](O)[C@H]1C(=O)N2C(C(=O)[O-])=C(Cn3cc4sc(C(N)=O)c[n+]4c3)[C@H](C)[C@H]12 [Example 68, (1S,5R,6S)-6-[(1R)-1-hydroxyethyl]-2-(2-carbamoylimidazo[5,1-b]thiazolium-6-yl)methyl-1-methyl-1-carbapen-2-em-3-carboxylate]

Reference: patent publication US5990101A, “Carbapenem derivatives” (Meiji Seika Kabushiki Kaisha, priority 1995, dated 1999)
